≈ marks a conversion by molar mass, not a printed value.
How the values were obtained:
[1] = tested on: Enterococcus faecalis; experiment: Antibacterial activity against Enterococcus faecalis after 24 hrs by broth microdilution method; type: functional
[2] = tested on: Staphylococcus aureus; experiment: Antibacterial activity against Staphylococcus aureus Smith after 24 hrs by broth microdilution method; type: functional
[3] = tested on: Staphylococcus aureus; experiment: Antibacterial activity against methicillin-resistant Staphylococcus aureus clinical isolate after 24 hrs by broth microdilution method; type: functional
[4] = tested on: Staphylococcus aureus; experiment: Antibacterial activity against methicillin-resistant and vancomycin-intermediate resistant Staphylococcus aureus clinical isolate after 24 hrs by broth microdilution method; type: functional
[5] = tested on: Staphylococcus aureus; experiment: Antibacterial activity against vancomycin-intermediate resistant Staphylococcus aureus clinical isolate after 24 hrs by broth microdilution method; type: functional
[6] = tested on: Streptococcus pyogenes; experiment: Antibacterial activity against Streptococcus pyogenes C203 after 24 hrs by broth microdilution method; type: functional; conditions: C203, 24 h
[7] = tested on: Enterococcus faecalis; experiment: Antibacterial activity against vancomycin A-resistant Enterococcus faecalis after 24 hrs by broth microdilution method; type: functional
[8] = tested on: Enterococcus faecium; experiment: Antibacterial activity against Enterococcus faecium after 24 hrs by broth microdilution method; type: functional
[9] = tested on: Enterococcus faecium; experiment: Antibacterial activity against vancomycin A-resistant Enterococcus faecium clinical isolate after 24 hrs by broth microdilution method; type: functional
[10] = tested on: Escherichia coli; experiment: Antibacterial activity against Escherichia coli SKF-12140 after 24 hrs by broth microdilution method; type: functional
[11] = tested on: Candida albicans; experiment: Antifungal activity against Candida albicans SKF-2270 after 24 hrs by broth microdilution method; type: functional
[12] = Toxicity assessed as hemolysis in erythrocytes at 180 mg/L; type: cell-based, Erythrocyte; conditions: human; for hemolysis at 180 mg/L: erythrocytes, read-out: Activity; for Activity: erythrocyte
[13] = Toxicity assessed as hemolysis in erythrocytes at 90 mg/L; type: cell-based, Erythrocyte; conditions: human; for hemolysis at 90 mg/L: erythrocytes, read-out: Activity; for Activity: erythrocyte

SMILES	MIC ([1]; read-out: MIC) [µg/mL]	MIC ([2]; read-out: MIC) [µg/mL]	MIC ([3]; read-out: MIC) [µg/mL]	MIC ([4]; read-out: MIC) [µg/mL]	MIC [5] [µg/mL]	MIC ([6]; read-out: MIC) [µg/mL]	MIC ([7]; read-out: MIC) [µg/mL]	MIC ([8]; read-out: MIC) [µg/mL]	MIC ([9]; read-out: MIC) [µg/mL]	MIC ([10]; read-out: MIC) [µg/mL]	MIC ([11]; read-out: MIC) [µg/mL]	hemolysis at 180 mg/L [12] [%]	hemolysis at 90 mg/L [13] [%]	also measured
CC(C)C[C@@H]1NC(=O)CNC(=O)[C@H](c2ccc(O)cc2)NC(=O)[C@@H]([C@@H](C)O)NC(=O)[C@H](c2ccc(O[C@H]3O[C@H](CO)[C@@H](O)[C@H](O)[C@@H]3O[C@H]3O[C@H](CO)[C@@H](O)[C@H](O)[C@@H]3O)cc2)NC(=O)[C@@H](CCCN)NC(=O)[C@H](Cc2ccccc2)NC(=O)[C@H]([C@@H](C)O)NC(=O)[C@@H](c2ccc(O)cc2)NC(=O)[C@H](c2ccc(O)cc2)NC(=O)[C@@H](C(C)C)NC(=O)[C@@H](CCCN)NC(=O)[C@@H](c2ccc(O)cc2)NC(=O)[C@@H](CNC(=O)[C@H](CC(N)=O)NC(=O)c2ccc3ccccc3c2)[C@@H](C(N)=O)OC(=O)[C@H](c2ccc(O)c(Cl)c2)NC(=O)[C@@H](C)NC1=O	0.125 (≈ 0.0484 µM)	0.125 (≈ 0.0484 µM)	0.25 (≈ 0.0967 µM)	2 (≈ 0.774 µM)	1 (≈ 0.387 µM)	≤ 0.03	0.25 (≈ 0.0967 µM)	0.25 (≈ 0.0967 µM)	0.25 (≈ 0.0967 µM)	> 32	> 32	40	8	–
CC(C)C[C@@H]1NC(=O)CNC(=O)[C@H](c2ccc(O)cc2)NC(=O)[C@@H]([C@@H](C)O)NC(=O)[C@H](c2ccc(O[C@H]3O[C@H](CO)[C@@H](O)[C@H](O)[C@@H]3O[C@H]3O[C@H](CO)[C@@H](O)[C@H](O)[C@@H]3O)cc2)NC(=O)[C@@H](CCCN)NC(=O)[C@H](Cc2ccccc2)NC(=O)[C@H]([C@@H](C)O)NC(=O)[C@@H](c2ccc(O)cc2)NC(=O)[C@H](c2ccc(O)cc2)NC(=O)[C@@H](C(C)C)NC(=O)[C@@H](CCCN)NC(=O)[C@@H](c2ccc(O)cc2)NC(=O)[C@@H](CNC(=O)[C@H](CC(N)=O)NC(=O)CCc2ccccc2)[C@@H](C(N)=O)OC(=O)[C@H](c2ccc(O)c(Cl)c2)NC(=O)[C@@H](C)NC1=O	2 (≈ 0.781 µM)	16 (≈ 6.24 µM)	2 (≈ 0.781 µM)	8 (≈ 3.12 µM)	8 (≈ 3.12 µM)	≤ 0.03	2 (≈ 0.781 µM)	1 (≈ 0.39 µM)	2 (≈ 0.781 µM)	> 32	> 32	0	0	–
CCCCCCCC(=O)N[C@@H](CC(N)=O)C(=O)NC[C@@H]1C(=O)N[C@H](c2ccc(O)cc2)C(=O)N[C@H](CCCN)C(=O)N[C@H](C(C)C)C(=O)N[C@@H](c2ccc(O)cc2)C(=O)N[C@H](c2ccc(O)cc2)C(=O)N[C@@H]([C@@H](C)O)C(=O)N[C@@H](Cc2ccccc2)C(=O)N[C@H](CCCN)C(=O)N[C@@H](c2ccc(O[C@H]3O[C@H](CO)[C@@H](O)[C@H](O)[C@@H]3O[C@H]3O[C@H](CO)[C@@H](O)[C@H](O)[C@@H]3O)cc2)C(=O)N[C@H]([C@@H](C)O)C(=O)N[C@@H](c2ccc(O)cc2)C(=O)NCC(=O)N[C@@H](CC(C)C)C(=O)N[C@H](C)C(=O)N[C@@H](c2ccc(O)c(Cl)c2)C(=O)O[C@@H]1C(N)=O	–	–	0.0005 (≈ 0.000196 µM)	–	0.002 (≈ 0.000782 µM)	–	–	–	–	–	–	–	–	MIC [1]: 0.125 µg/mL (≈ 0.0489 µM); MIC [2]: 0.25 µg/mL (≈ 0.0978 µM); MIC [4]: 4 µg/mL (≈ 1.56 µM); MIC [6]: < 0.03 µg/mL; MIC [7]: 0.06 µg/mL (≈ 0.0235 µM); MIC [8]: 0.25 µg/mL (≈ 0.0978 µM); MIC [9]: 0.125 µg/mL (≈ 0.0489 µM); MIC [10]: > 32 µg/mL; MIC [11]: > 32 µg/mL; Activity [12]: 16%; Activity [13]: 0%
CC(C)C[C@@H]1NC(=O)CNC(=O)[C@H](c2ccc(O)cc2)NC(=O)[C@@H]([C@@H](C)O)NC(=O)[C@H](c2ccc(O[C@H]3O[C@H](CO)[C@@H](O)[C@H](O)[C@@H]3O[C@H]3O[C@H](CO)[C@@H](O)[C@H](O)[C@@H]3O)cc2)NC(=O)[C@@H](CCCN)NC(=O)[C@H](Cc2ccccc2)NC(=O)[C@H]([C@@H](C)O)NC(=O)[C@@H](c2ccc(O)cc2)NC(=O)[C@H](c2ccc(O)cc2)NC(=O)[C@@H](C(C)C)NC(=O)[C@@H](CCCN)NC(=O)[C@@H](c2ccc(O)cc2)NC(=O)[C@@H](CNC(=O)[C@H](CC(N)=O)NC(=O)CCCc2ccccc2)[C@@H](C(N)=O)OC(=O)[C@H](c2ccc(O)c(Cl)c2)NC(=O)[C@@H](C)NC1=O	1 (≈ 0.388 µM)	1 (≈ 0.388 µM)	2 (≈ 0.776 µM)	8 (≈ 3.11 µM)	8 (≈ 3.11 µM)	≤ 0.03	1 (≈ 0.388 µM)	2 (≈ 0.776 µM)	2 (≈ 0.776 µM)	> 32	> 32	0	0	–
CC(C)C[C@@H]1NC(=O)CNC(=O)[C@H](c2ccc(O)cc2)NC(=O)[C@@H]([C@@H](C)O)NC(=O)[C@H](c2ccc(O[C@H]3O[C@H](CO)[C@@H](O)[C@H](O)[C@@H]3O[C@H]3O[C@H](CO)[C@@H](O)[C@H](O)[C@@H]3O)cc2)NC(=O)[C@@H](CCCN)NC(=O)[C@H](Cc2ccccc2)NC(=O)[C@H]([C@@H](C)O)NC(=O)[C@@H](c2ccc(O)cc2)NC(=O)[C@H](c2ccc(O)cc2)NC(=O)[C@@H](C(C)C)NC(=O)[C@@H](CCCN)NC(=O)[C@@H](c2ccc(O)cc2)NC(=O)[C@@H](CNC(=O)[C@H](CC(N)=O)NC(=O)Cc2cccc3ccccc23)[C@@H](C(N)=O)OC(=O)[C@H](c2ccc(O)c(Cl)c2)NC(=O)[C@@H](C)NC1=O	–	–	–	–	0.0005 (≈ 0.000192 µM)	–	–	–	–	–	–	–	–	MIC [1]: 0.125 µg/mL (≈ 0.0481 µM); MIC [2]: 0.25 µg/mL (≈ 0.0962 µM); MIC [3]: 0.125 µg/mL (≈ 0.0481 µM); MIC [4]: 1 µg/mL (≈ 0.385 µM); MIC [6]: ≤ 0.03 µg/mL; MIC [7]: 0.125 µg/mL (≈ 0.0481 µM); MIC [8]: 0.25 µg/mL (≈ 0.0962 µM); MIC [9]: 0.25 µg/mL (≈ 0.0962 µM); MIC [10]: > 32 µg/mL; MIC [11]: > 32 µg/mL; Activity [12]: 28%; Activity [13]: 15%
CCCCCC(=O)N[C@@H](CC(N)=O)C(=O)NC[C@@H]1C(=O)N[C@H](c2ccc(O)cc2)C(=O)N[C@H](CCCN)C(=O)N[C@H](C(C)C)C(=O)N[C@@H](c2ccc(O)cc2)C(=O)N[C@H](c2ccc(O)cc2)C(=O)N[C@@H]([C@@H](C)O)C(=O)N[C@@H](Cc2ccccc2)C(=O)N[C@H](CCCN)C(=O)N[C@@H](c2ccc(O[C@H]3O[C@H](CO)[C@@H](O)[C@H](O)[C@@H]3O[C@H]3O[C@H](CO)[C@@H](O)[C@H](O)[C@@H]3O)cc2)C(=O)N[C@H]([C@@H](C)O)C(=O)N[C@@H](c2ccc(O)cc2)C(=O)NCC(=O)N[C@@H](CC(C)C)C(=O)N[C@H](C)C(=O)NC(c2ccc(O)c(Cl)c2)C(=O)O[C@@H]1C(N)=O (stereo partly specified)	2 (≈ 0.791 µM)	4 (≈ 1.58 µM)	4 (≈ 1.58 µM)	32 (≈ 12.7 µM)	16 (≈ 6.33 µM)	0.125 (≈ 0.0494 µM)	2 (≈ 0.791 µM)	4 (≈ 1.58 µM)	4 (≈ 1.58 µM)	> 32	> 32	8	0	–
CC(C)C[C@@H]1NC(=O)CNC(=O)[C@H](c2ccc(O)cc2)NC(=O)[C@@H]([C@@H](C)O)NC(=O)[C@H](c2ccc(O[C@H]3O[C@H](CO)[C@@H](O)[C@H](O)[C@@H]3O[C@H]3O[C@H](CO)[C@@H](O)[C@H](O)[C@@H]3O)cc2)NC(=O)[C@@H](CCCN)NC(=O)[C@H](Cc2ccccc2)NC(=O)[C@H]([C@@H](C)O)NC(=O)[C@@H](c2ccc(O)cc2)NC(=O)[C@H](c2ccc(O)cc2)NC(=O)[C@@H](C(C)C)NC(=O)[C@@H](CCCN)NC(=O)[C@@H](c2ccc(O)cc2)NC(=O)[C@@H](CNC(=O)[C@H](CC(N)=O)NC(=O)c2ccc(OCc3cccc(Cl)c3)cc2)[C@@H](C(N)=O)OC(=O)[C@H](c2ccc(O)c(Cl)c2)NC(=O)[C@@H](C)NC1=O	0.5 (≈ 0.187 µM)	1 (≈ 0.374 µM)	2 (≈ 0.748 µM)	8 (≈ 2.99 µM)	8 (≈ 2.99 µM)	0.13 (≈ 0.0486 µM)	0.13 (≈ 0.0486 µM)	0.5 (≈ 0.187 µM)	0.25 (≈ 0.0935 µM)	> 32	> 32	100	25	–

Reference: ChEMBL document CHEMBL1145390, “Synthesis and preliminary biological characterization of new semisynthetic derivatives of ramoplanin” (J Med Chem, 2007)
